{"source": "patent US20060135618A1", "about": "“Medicine comprising a thiourea for use as depigmenting agent or anti-mutagenic and anti-carcinogenic agent” (priority 2002, published 2006)", "key": {"[1]": {"test_system": "melanin-producing human melanocyte-keratinocyte co-cultures", "assay": "Depigmenting effect: melanin extraction from pigmented epidermis co-cultures", "assay_type": "cell-based", "details": "for Inhibition % of the melanin in the co-cultures: 2.8 mM in culture medium for 21 days; for inhibition at 2800 µM: read-out: Inhibition % of the melanin in the co-cultures", "description": "The culture media are also supplied by this manufacturer.\nExtraction is carried out on a pool of two culture wells, which are homogenized in 0.45 ml of sodium dodecyl sulphate (SDS) at 1% containing 0.05 mM of EDTA and 10 mM of Tris HCl (amino-2-(hydroxymethyl)-2-propanediol-1,3), pH 6.8. Add 20 μl of proteinase K at 5 mg/ml to each homogenate. Digest over night at 45° C. Then add a further 20 μl of proteinase K and continue incubation for 4 hours. Then add 50 μl of 0.5 M solution of sodium carbonate and 10 μl of a 30% solution of hydrogen peroxide. Maintain the specimens at 80° C. for 30 min and then cool them. Extract the specimens with 100 μl of a chloroform-methanol mixture (2:1, v/v). After centrifugation at 10,000 g for 10 min, measure the optical density of the supernatant at 405 nm. The products are compared in Table 1 below (the results are expressed as percentage inhibition of the melanin in the co-cultures): […]"}, "[2]": {"test_system": "Salmonella typhimurium TA 104 recN2-4", "assay": "Vitotox test, antimutagenic effect against MMS (methylmethanesulphonate)", "assay_type": "cell-based", "description": "After incubation of the bacteria with a genotoxic product, the recN promoter is derepressed and the lux operon is expressed: emission of light, the said emission being proportional to the genotoxicity of the product. Some products act directly on the production of light or increase the metabolism of the bacteria, creating false positives. […] The same strain is used as cytotoxicity control (false negatives).\n• In order to test the antimutagenic effect against genotoxic molecules, a genotoxic molecule, methylmethanesulphonate (MMS), is used, which is compared against the genotoxicity of a mixture of reference mutagenic molecules, 4-nitroquinoline oxide and benzo(a)pyrene. MMS is placed alone or mixed with bis MsoBT at increasing concentrations and the emissions of light are compared. […] The test product is used with or without metabolic activation (fraction S9: microsomal homogenate containing cytochrome P450: […] final). • The kinetics of emission of light, as a function of the genotoxicity and of the cytotoxicity of the product, is measured for 3 hours (measurements every 5 minutes) with a Fluoroskan Ascent FL (bermnoLabsystems). • The products are supplied by the companies Sigma-Aldrich. […]"}, "[3]": {"test_system": "Salmonella typhimurium TA 104 recN2-4", "assay": "Vitotox test, antimutagenic effect against UVB", "assay_type": "cell-based", "details": "cultures irradiated for 20 s, 254 nm, without MMS"}}, "data": [{"smiles": "C[S+]([O-])CCCCNC(=S)NCCCC[S+](C)[O-]", "note": "(stereo not shown) [bis MSiBT, 1,3-bis-(5-methanesulphinylbutyl)-thiourea]", "values": [{"measurement": "Inhibition % of the melanin in the co-cultures", "setting": "[1]", "value": 7.5, "unit": "%"}]}, {"smiles": "O=c1cc(CO)occ1O", "note": "[Kojic acid, reference compound]", "values": [{"measurement": "inhibition at 35000 µM", "setting": "[1]; Homo sapiens, 504 h, 35 mM in culture medium for 21 days", "value": 32, "unit": "%"}]}, {"smiles": "CNC(=S)NC", "note": "[Dimethylthiourea, dimethylthiourea, reference compound]", "values": [{"measurement": "Inhibition % of the melanin in the co-cultures", "setting": "[1]", "value": 36, "unit": "%"}]}, {"smiles": "C[S+]([O-])CCCCNC(=S)NCCCCS(C)(=O)=O", "note": "(stereo not shown) [MSBMSBT, 1-(5-methanesulphinylbutyl)-3-(5-methanesulphonylbutyl)-thiourea]", "values": [{"measurement": "inhibition at 2800 µM", "setting": "[1]; Homo sapiens, 504 h", "value": 18, "unit": "%"}]}, {"smiles": "CS(=O)(=O)CCCCNC(=S)NCCCCS(C)(=O)=O", "note": "[bis MSoBT, 1,3-bis-(5-methanesulphonylbutyl) thiourea]", "values": [{"measurement": "inhibition at 2800 µM", "setting": "[1]; Homo sapiens, 504 h", "value": 29.6, "unit": "%"}, {"measurement": "necessary concentration for approx. 30% melanin inhibition, times lower than for kojic acid", "setting": "[1]; relative to kojic acid", "value": 25, "unit": "times"}, {"measurement": "inhibitory concentration 50 of the mutagenic effect of MMS", "setting": "[2]; with S9", "value": 20, "unit": "ppm"}, {"measurement": "inhibitory concentration 50 of the mutagenic effect of MMS", "setting": "[2]; without S9", "value": 17, "unit": "ppm"}, {"measurement": "inhibitory concentration 50 of the mutagenic effect induced by UVB", "setting": "[3]", "value": 25, "unit": "ppm"}, {"measurement": "melting point", "value": 142, "unit": "°C"}]}]}
